# Measurements from patent US12371454B2, “Cyclic peptide compound having Kras inhibitory action” (priority 2019, dated 2025).
# Positions of bridges follow the written chain, without caps; N, C: chain ends. Non-standard residues stand in square brackets, D forms with d. Residues, ends and D or L forms follow the SMILES beside them. *: point of attachment. hPhe(3,5-F2-4-CF3) = N[C@@H](CCc1cc(F)c(C(F)(F)F)c(F)c1)C(=O)O; hPhe(3-Cl-4-CF3) = N[C@@H](CCc1ccc(C(F)(F)F)c(Cl)c1)C(=O)O; hPhe(3-F,4-CF3) = N[C@@H](CCc1ccc(C(F)(F)F)c(F)c1)C(=O)O; 3Oxa8azabicyclo(3.2.1)octane = C1CC2COCC1N2*; NMePhe(4-Me) = CN[C@@H](Cc1ccc(C)cc1)C(=O)O; NMeAla(cPent) = CN[C@@H](CC1CCCC1)C(=O)O; NMeGly(cPent) = CN[C@H](C(=O)O)C1CCCC1; NMeCha = CN[C@@H](CC1CCCCC1)C(=O)O; NMehLeu = CN[C@@H](CCC(C)C)C(=O)O; NMeD = CN[C@@H](CC(=O)O)C(=O)O; NMeL = CN[C@@H](CC(C)C)C(=O)O; NMeV = CN[C@H](C(=O)O)C(C)C; d(β3hA) = C[C@@H](N)CC(=O)O; NMeS = CN[C@@H](CO)C(=O)O; Morpholide = C1CN(*)CCO1; NMeA = CN[C@@H](C)C(=O)O; Piperidide = C1CCN(*)CC1; Ac5c = NC1(C(=O)O)CCCC1; Aze = O=C(O)[C@@H]1CCN1; NEtG = CCNCC(=O)O; Sar = CNCC(=O)O; Propyl = CCC*
# Test system: Human pancreatic cancer cell line AsPC-1
# Test: Measurement of AsPC-1 cell growth inhibition (AsPC-1 CGI)
# Format: cell-based
# Conditions: 96 h
# Outline: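 AsPC-1 cells in 15% FBS RPMI-1640 were exposed to test compound for 96 hours at 37° C, with CellTiter-Glo as endpoint.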
row,SMILES,IC50
1,CC[C@H](C)[C@@H]1NC(=O)[C@H](CC(C)C)N(C)C(=O)C[C@@H](C(=O)N2CCOCC2)N(C)C(=O)[C@H](C2CCCC2)N(C)C(=O)C2(CCCC2)NC(=O)[C@@H]2CCCN2C(=O)[C@H](CCc2ccc(C(F)(F)F)c(Cl)c2)NC(=O)CN(C)C(=O)[C@H](C2CCCC2)N(C)C(=O)[C@@H]2CCN2C(=O)[C@H](C)NC1=O [Compound 1309] ([NMeL]IA[Aze][NMeGly(cPent)][Sar][hPhe(3-Cl-4-CF3)]P[Ac5c][NMeGly(cPent)][NMeD]-Morpholide; lactam N-11),50 to 100 nM
2,CCCOC[C@H]1C(=O)N(C)CC(=O)N[C@@H](CCc2ccc(C(F)(F)F)c(Cl)c2)C(=O)N2CCC[C@H]2C(=O)NC2(CCCC2)C(=O)N(C)[C@@H](C2CCCC2)C(=O)N(C)[C@H](C(=O)N2C3CCC2COC3)CC(=O)N(C)[C@@H](CCC(C)C)C(=O)N[C@@H]([C@@H](C)CC)C(=O)N[C@@H](C)C(=O)N2CC[C@H]2C(=O)N1C [Compound 1326] ([NMehLeu]IA[Aze][NMeS](Propyl)[Sar][hPhe(3-Cl-4-CF3)]P[Ac5c][NMeGly(cPent)][NMeD]-{3Oxa8azabicyclo(3.2.1)octane}; lactam N-11),20 to 50 nM
3,CC[C@H](C)[C@@H]1NC(=O)[C@H](CC(C)C)N(C)C(=O)C[C@@H](C)NC(=O)[C@H](C2CCCC2)N(C)C(=O)C2(CCCC2)NC(=O)[C@@H]2CCCN2C(=O)[C@H](CCc2ccc(C(F)(F)F)c(Cl)c2)NC(=O)CN(C)C(=O)[C@H](Cc2ccc(C)cc2)N(C)C(=O)[C@@H]2CCN2C(=O)[C@H](C)NC1=O [Compound 1331] (cyclo(A[Aze][NMePhe(4-Me)][Sar][hPhe(3-Cl-4-CF3)]P[Ac5c][NMeGly(cPent)][d(β3hA)][NMeL]I)),50 to 100 nM
4,CC[C@H](C)[C@@H]1NC(=O)[C@H](CC(C)C)N(C)C(=O)C[C@@H](C(=O)N2CCCCC2)N(C)C(=O)[C@H](C(C)C)N(C)C(=O)C2(CCCC2)NC(=O)[C@@H]2CCCN2C(=O)[C@H](CCc2ccc(C(F)(F)F)c(Cl)c2)NC(=O)CN(C)C(=O)[C@H](CC2CCCCC2)N(C)C(=O)[C@@H]2CCN2C(=O)[C@H](C)NC1=O [Compound 1334] ([NMeL]IA[Aze][NMeCha][Sar][hPhe(3-Cl-4-CF3)]P[Ac5c][NMeV][NMeD]-Piperidide; lactam N-11),100 to 500 nM
5,CCCOC[C@H]1C(=O)N(CC)CC(=O)N[C@@H](CCc2ccc(C(F)(F)F)c(Cl)c2)C(=O)N2CCC[C@H]2C(=O)NC2(CCCC2)C(=O)N(C)[C@@H](C2CCCC2)C(=O)N(C)[C@H](C(=O)N2C3CCC2COC3)CC(=O)N(C)[C@@H](CC(C)C)C(=O)N[C@@H]([C@@H](C)CC)C(=O)N(C)[C@@H](C)C(=O)N2CC[C@H]2C(=O)N1C [Compound 1338] ([NMeL]I[NMeA][Aze][NMeS](Propyl)[NEtG][hPhe(3-Cl-4-CF3)]P[Ac5c][NMeGly(cPent)][NMeD]-{3Oxa8azabicyclo(3.2.1)octane}; lactam N-11),50 to 100 nM
6,"CC[C@H](C)[C@@H]1NC(=O)[C@H](CC2CCCC2)N(C)C(=O)C[C@@H](C(=O)N(C)C)N(C)C(=O)[C@H](C2CCCC2)N(C)C(=O)C2(CCCC2)NC(=O)[C@@H]2CCCN2C(=O)[C@H](CCc2ccc(C(F)(F)F)c(F)c2)NC(=O)CN(C)C(=O)[C@H](CC2CCCCC2)N(C)C(=O)[C@@H]2CCN2C(=O)[C@H](C)NC1=O [Compound 1340] ([NMeAla(cPent)]IA[Aze][NMeCha][Sar][hPhe(3-F,4-CF3)]P[Ac5c][NMeGly(cPent)][NMeD]-NMe2; lactam N-11)",20 to 50 nM
7,CC[C@H](C)[C@@H]1NC(=O)[C@H](CC(C)C)N(C)C(=O)C[C@@H](C(=O)N2CCCCC2)NC(=O)[C@H](C(C)C)N(C)C(=O)C2(CCCC2)NC(=O)[C@@H]2CCCN2C(=O)[C@H](CCc2ccc(C(F)(F)F)c(Cl)c2)NC(=O)CN(C)C(=O)[C@H](CC2CCCCC2)N(C)C(=O)[C@@H]2CCN2C(=O)[C@H](C)N(C)C1=O [Compound 1353] ([NMeL]I[NMeA][Aze][NMeCha][Sar][hPhe(3-Cl-4-CF3)]P[Ac5c][NMeV]D-Piperidide; lactam N-11),100 to 500 nM
8,"CCCOC[C@H]1C(=O)N(C)CC(=O)N[C@@H](CCc2cc(F)c(C(F)(F)F)c(F)c2)C(=O)N2CCC[C@H]2C(=O)NC2(CCCC2)C(=O)N(C)[C@@H](C2CCCC2)C(=O)N(C)[C@H](C(=O)N2C3CCC2COC3)CC(=O)N(C)[C@@H](CC(C)C)C(=O)N[C@@H]([C@@H](C)CC)C(=O)N(C)[C@@H](C)C(=O)N2CC[C@H]2C(=O)N1C [Compound 1355] ([NMeL]I[NMeA][Aze][NMeS](Propyl)[Sar][hPhe(3,5-F2-4-CF3)]P[Ac5c][NMeGly(cPent)][NMeD]-{3Oxa8azabicyclo(3.2.1)octane}; lactam N-11)",20 to 50 nM
9,CCCOC[C@H]1C(=O)N(C)CC(=O)N[C@@H](CCc2ccc(C(F)(F)F)c(Cl)c2)C(=O)N2CCC[C@H]2C(=O)NC2(CCCC2)C(=O)N(C)[C@@H](C2CCCC2)C(=O)N(C)[C@H](C(=O)N2C3CCC2COC3)CC(=O)N(C)[C@@H](CC2CCCC2)C(=O)N[C@@H]([C@@H](C)CC)C(=O)N[C@@H](C)C(=O)N2CC[C@H]2C(=O)N1C [Compound 1359] ([NMeAla(cPent)]IA[Aze][NMeS](Propyl)[Sar][hPhe(3-Cl-4-CF3)]P[Ac5c][NMeGly(cPent)][NMeD]-{3Oxa8azabicyclo(3.2.1)octane}; lactam N-11),50 to 100 nM
